The results in this text go back to patent publication US20080108085A1 (priority 2001, published 2008).

Like-named read-outs stand apart in the source and are kept apart here. Where only a bound is given, the exact number is not on record here.

The subject of the experiment is surface-bound mouse prions (RML). The following applies: for Incubation time s.d. / Sick/total: Table 4, infectious wires treated: sodium hydroxide 1M 1 h, formaldehyde 10% 1 h, guanidinium thiocyanate 4M 16 h, 25° C.; for Infectivity of treated prion-coated wires: sodium hydroxide 1 M 1 h, guanidinium thiocyanate 4 M 16 h, formaldehyde 10%.

On to `[Na+].[OH-]` [Sodium hydroxide], for which the Incubation time s.d. is greater than 260 days, the Sick/total is recorded as 0/6 and the “Infectivity of treated prion-coated wires” value is “completely non-infectious”.

In the case of `C=O` [Formaldehyde], the Incubation time s.d. was determined as 92 ± 8 days and the Sick/total was 6/6. For the same compound, the Incubation time s.d. (listed as formaldehyde) came out at 92 ± 8 days.

For the compound `N#CS.N=C(N)N` [Guanidinium thiocyanate], the Incubation time s.d. is greater than 260 days, the Sick/total is listed as 0/6 and the “Infectivity of treated prion-coated wires” value is “completely non-infectious”.
